Measured values from BindingDB's records for doi:10.1124/mol.53.2.195 (Suntory Institute For Bioorganic Research, 1998).
One block for each compound: values may come before it.

Experiments:
[1] = target: Glutamate receptor ionotropic, NMDA 1 (Rattus norvegicus, UniProt P35439)
[2] = target: Glutamate receptor ionotropic, kainate 1 (Rattus norvegicus, UniProt P22756)
[3] = target: Glutamate receptor 3 (Rattus norvegicus, UniProt P19492)
Sequence of Glutamate receptor 3 (P19492 whole entry): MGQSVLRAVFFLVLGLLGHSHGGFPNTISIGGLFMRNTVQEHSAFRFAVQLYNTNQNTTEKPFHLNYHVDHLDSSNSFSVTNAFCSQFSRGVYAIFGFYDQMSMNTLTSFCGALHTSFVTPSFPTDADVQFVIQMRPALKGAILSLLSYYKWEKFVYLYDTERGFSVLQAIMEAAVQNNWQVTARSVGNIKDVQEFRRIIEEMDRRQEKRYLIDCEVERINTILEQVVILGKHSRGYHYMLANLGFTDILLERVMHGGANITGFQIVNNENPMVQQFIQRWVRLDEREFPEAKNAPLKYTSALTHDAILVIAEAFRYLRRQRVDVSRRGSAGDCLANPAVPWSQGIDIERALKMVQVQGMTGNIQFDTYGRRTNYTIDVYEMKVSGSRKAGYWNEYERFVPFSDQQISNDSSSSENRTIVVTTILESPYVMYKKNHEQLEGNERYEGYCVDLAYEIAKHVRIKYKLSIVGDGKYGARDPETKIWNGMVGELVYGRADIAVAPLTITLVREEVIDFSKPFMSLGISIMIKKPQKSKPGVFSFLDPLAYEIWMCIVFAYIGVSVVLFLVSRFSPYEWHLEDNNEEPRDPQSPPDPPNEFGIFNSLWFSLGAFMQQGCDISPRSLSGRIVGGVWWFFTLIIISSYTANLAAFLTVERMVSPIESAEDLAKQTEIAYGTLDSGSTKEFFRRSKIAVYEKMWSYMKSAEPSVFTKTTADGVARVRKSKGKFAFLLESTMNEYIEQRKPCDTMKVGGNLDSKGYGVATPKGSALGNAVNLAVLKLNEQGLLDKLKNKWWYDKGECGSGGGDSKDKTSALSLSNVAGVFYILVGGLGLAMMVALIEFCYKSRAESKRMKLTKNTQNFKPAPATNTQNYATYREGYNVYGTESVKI

Sequence of Glutamate receptor ionotropic, kainate 1 (P22756 whole entry): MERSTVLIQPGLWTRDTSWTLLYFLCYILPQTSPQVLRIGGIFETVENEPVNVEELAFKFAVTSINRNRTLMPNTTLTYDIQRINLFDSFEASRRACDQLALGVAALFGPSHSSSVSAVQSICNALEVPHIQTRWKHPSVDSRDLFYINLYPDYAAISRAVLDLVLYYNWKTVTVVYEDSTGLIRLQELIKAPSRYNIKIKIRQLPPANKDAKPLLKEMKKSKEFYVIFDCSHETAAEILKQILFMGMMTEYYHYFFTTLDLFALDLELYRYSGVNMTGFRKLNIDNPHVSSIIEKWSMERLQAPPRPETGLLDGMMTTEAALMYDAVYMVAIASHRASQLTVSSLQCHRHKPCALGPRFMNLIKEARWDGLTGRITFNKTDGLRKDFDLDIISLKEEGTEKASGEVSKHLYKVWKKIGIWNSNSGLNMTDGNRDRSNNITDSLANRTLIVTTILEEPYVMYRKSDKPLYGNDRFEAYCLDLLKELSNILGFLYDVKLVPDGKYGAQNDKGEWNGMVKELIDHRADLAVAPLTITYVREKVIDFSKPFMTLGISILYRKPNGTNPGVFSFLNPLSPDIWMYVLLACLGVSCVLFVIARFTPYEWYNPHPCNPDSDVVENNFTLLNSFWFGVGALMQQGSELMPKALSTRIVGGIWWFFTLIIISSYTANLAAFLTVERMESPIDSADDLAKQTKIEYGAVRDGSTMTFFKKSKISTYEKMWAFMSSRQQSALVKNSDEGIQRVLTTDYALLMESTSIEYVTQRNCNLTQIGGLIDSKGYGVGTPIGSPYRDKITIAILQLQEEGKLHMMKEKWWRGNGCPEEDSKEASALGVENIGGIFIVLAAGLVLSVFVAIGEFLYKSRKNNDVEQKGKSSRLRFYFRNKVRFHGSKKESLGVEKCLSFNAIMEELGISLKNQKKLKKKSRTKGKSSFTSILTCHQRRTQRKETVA

Compound: N[C@H](C(=O)O)[C@H](OC(=O)c1ccccc1)C(=O)O (racemic) [DL-TBzOAsp]
Ki [1]: > 10 µM
Ki [2]: > 10 µM
Ki [3]: > 10 µM

Compound: N[C@H](C(=O)O)[C@H](O)C(=O)O (racemic) [DL-THA]
Ki [1]: > 10 µM
Ki [2]: > 10 µM
Ki [3]: > 10 µM

Compound: N[C@H](C(=O)O)[C@H](OCc1ccccc1)C(=O)O [DL-TBOA]
Ki [1]: > 10 µM
Ki [2]: > 10 µM
Ki [3]: > 10 µM

Ki [1]: 0.008 µM
Compound: N[C@H](C(=O)O)[C@H]1C[C@H]1C(=O)O [L-CCG-IV]

Ki [1]: 5.5 µM
Compound: CN[C@H](CC(=O)O)C(=O)O [NMDA]

Compound: CC(C)[C@H]1CN[C@H](C(=O)O)[C@H]1CC(=O)O [dihydrokainic acid]
Ki [1]: > 10 µM
Ki [2]: 6 µM
Ki [3]: > 10 µM

Compound: O=C(O)[C@H]1CN[C@H](C(=O)O)C1 [t-PDC]
Ki [1]: > 10 µM
Ki [2]: > 10 µM
Ki [3]: > 10 µM
